Tests used:
Assay type in all cases: cell-based
T47D cells [1] = experiment: Crystal violet cell viability assay, T47D
Procedure: This example covers the cell toxicities of endoxifen and various endoxifen-related compounds. The toxicities of these compounds were measured using crystal violet cell viabilities assays per the protocols outlined in Feoktistova et al., Cold Spring Harb Protoc., 2016; 4 (PMID: 27037069). This assay utilizes crystal violet, which is a triarylmethane dye that binds to ribose type molecules such as DNA in nuclei. The amount of crystal violet staining is proportional to the cell biomass that is attached to the plate and thus this cell biomass can be used to infer levels of cell viability and cytotoxicity in control/experimental conditions. […]
FIGS. 34-39 summarize crystal violet assays with endoxifen (top-left plot in each figure), Compound 7b (top-middle plot in each figure), Compound 7a (top-right plot in each figure), Compound 5b (bottom-left plot in each figure), Compound 5a (bottom-middle plot in each figure), and Compound 3 (bottom-right plot in each figure). Each individual plot provides normalized absorbance (corresponding to cell concentration) over 25 nM to 5 μM concentration ranges, with the rightmost entry in each plot corresponding to vehicle treatment. […]

MCF7 cells [2] = experiment: Caspase-3/7 apoptosis assay, MCF7; settings: 1.25, 2.5, 5 μM
Source text: This example covers anti-invasion, apoptosis, and toxicity assays for various endoxifen-related compounds against multiple cancer cell lines. FIGS. 90A-F are plots that summarize results of proliferation assays for multiple cancer cell lines (MCF7, T47D, UCD4, and UCD12) in the presence of varying doses of endoxifen and multiple endoxifen-related compounds. FIGS. 91A-C are plots that summarize results of wound confluence measurements from scratch wound assays on T47D cells in the presence of 1.25 μM (FIG. 91A), 2.5 μM (FIG. 91B), and 5 μM (FIG. 91C) endoxifen and multiple endoxifen-related compounds. FIGS. 92A-C are plots that summarize results of wound density measurements from scratch wound assays on T47D cells in the presence of 1.25 μM (FIG. 92A), 2.5 μM (FIG. 92B), and 5 μM (FIG. 92C) endoxifen and multiple endoxifen-related compounds. FIGS. 93A-C are plots that summarize results of wound confluence measurements from scratch wound assays on MCF7 cells in the presence of 1.25 μM (FIG. 93A), 2.5 μM (FIG. 93B), and 5 μM (FIG. 93C) endoxifen and multiple endoxifen-related compounds. FIGS. 94A-C are plots that summarize results of wound density measurements from scratch wound assays on MCF7 cells in the presence of 1.25 μM (FIG. 94A), 2.5 μM (FIG. 94B), and 5 μM (FIG. 94C) endoxifen and multiple endoxifen-related compounds. […]

[3] = tested on: ERα+ breast cancer cell lines; experiment: Cell cycle arrest, Example 29
Source text: (§1) Approximately 80% of breast cancers express estrogen receptor alpha (ERα, ESR1) which drives cancer progression. […] (Z)-Endoxifen (ENDX), an active metabolite of tamoxifen, is a potent orally bioavailable selective estrogen receptor modulator with a favorable safety profile now under development for breast health applications. Its synthesis yields endoxifen-related byproduct new chemical entities (NCE), including Compound 7b, Compound 7a, Compound 5b and Compound 5a. This study compared the anti-estrogenic effects of these compounds to (Z)-endoxifen in ERα+ breast cancer cell lines (MCF7, T47D, UCD12), including those with ESR1 mutations (Y537S, D538G) linked to endocrine resistance.

UCD12 cells = experiment: 2D culture proliferation, UCD12; settings: for anti-proliferative activity compared with (Z)-endoxifen: estrogen-deficient conditions
Source text: as §1

[4] = tested on: ERα+ breast cancer cell lines in 3D cultures; experiment: 3D culture cancer cell proliferation; settings: ~1 μM
Source text: as §1

T47D cancer cells = experiment: Cell cycle progression assay; settings: higher concentration (2.5, 5 μM)
Procedure: This example covers cell cycle progression assays with endoxifen and multiple endoxifen-related compounds on T47D cancer cells. FIGS. 63A-G are plots that show absolute cell counts for cells in different cell cycle phases (G1 through S; G1; and S, G2, and M) following treatment with vehicle (DMSO) or 1.25 μM endoxifen, Compound 7b, Compound 7a, Compound 5b, Compound 5a, and Compound 3, respectively. FIGS. 64A-G are plots that show percent cell counts for cells in different cell cycle phases following treatment with vehicle or 1.25 μM endoxifen, Compound 7b, Compound 7a, Compound 5b, Compound 5a, and Compound 3, respectively. FIGS. 65A-G are plots that show absolute cell counts for cells in different cell cycle phases following treatment with vehicle or 2.5 μM endoxifen, Compound 7b, Compound 7a, Compound 5b, Compound 5a, and Compound 3, respectively. FIGS. 66A-G are plots that show percent cell counts for cells in different cell cycle phases following treatment with vehicle or 2.5 μM endoxifen, Compound 7b, Compound 7a, Compound 5b, Compound 5a, and Compound 3, respectively. FIGS. 67A-G are plots that show absolute cell counts for cells in different cell cycle phases following treatment with vehicle or 5 μM endoxifen, Compound 7b, Compound 7a, Compound 5b, Compound 5a, and Compound 3, respectively. […]

T47D cells [5] = experiment: 2D culture proliferation, T47D
Source text: as §1

MCF7 cells [6] = experiment: Apoptosis induction, MCF7, Example 29; settings: 1-5 μM; p<0.0001 vs. vehicle; p<0.0001 vs. (Z)-endoxifen
[7] = tested on: estrogen-induced and ERα-mediated activation of an estrogen response element (ERE) luciferase reporter construct in ER+ T47D cells; experiment: Luciferase (ERE reporter) agonist/antagonist assay, ER+ cells
T47D cells [8] = experiment: Apoptosis induction, T47D, Example 29; settings: p<0.0001 vs. vehicle
[9] = tested on: ERα+ breast cancer cell lines; experiment: RT-qPCR analysis; settings: 0.1 μM
[10] = 2D cultures, estrogen-containing media

Compound	activity against T47D cells compared with endoxifen (T47D cells [1]; micromolar concentrations (FIG. 41))	activity against T47D cells compared with endoxifen (T47D cells [1]; sub-100 nanomolar concentrations (FIG. 41))	potency at inducing the apoptosis of MCF7 cells (MCF7 cells [2])	G1 cell cycle arrest [3]	anti-proliferative activity compared with (Z)-endoxifen (UCD12 cells)	potency in 3D cultures, ranking [4]	cell cycle inhibition compared with endoxifen (T47D cancer cells)	anti-proliferative effect, ranking (T47D cells [5]; [10])	apoptosis induction in MCF7 cells (MCF7 cells [6])	agonist or antagonist behavior (luciferase assay) ([7]; T47D cell lines, FIGS. 72-74)	apoptosis induction in T47D cells (T47D cells [8])	RT-qPCR analysis, potency ranking [9]	anti-proliferative effect, ranking (UCD12 cells; [10])	anti-proliferative activity compared with (Z)-endoxifen (T47D cells [5]; estrogen-deficient conditions)	anti-proliferative effects in ER+ cells compared with endoxifen ([7]; CSS+E2 media)
CC/C(=C(\c1ccc(O)cc1)c1ccc(OCC[N+](C)(C)C)cc1)c1ccccc1 [Compound 5a]	greater activity than endoxifen	lower activity against T47D cells than endoxifen	equal potencies	most effective	more effective	comparable, superior potency	slightly lower cell cycle inhibition activity than endoxifen	strongest effects	surpassing (Z)-endoxifen	strong antagonistic behavior	–	–	–	–	–
CC/C(=C(/c1ccc(O)cc1)c1ccc(OCC[N+](C)(C)C)cc1)c1ccccc1 [Compound 5b]	–	–	equal potencies	–	–	–	slightly lower cell cycle inhibition activity than endoxifen	–	surpassing (Z)-endoxifen	–	–	–	–	–	–
CC/C(=C(\c1ccc(O)cc1)c1ccc(OCCN(C)C(C)=O)cc1)c1ccccc1 [Compound 7a]	–	–	–	–	more effective	–	–	–	surpassing (Z)-endoxifen	–	significantly induced	most potent	strongest effects	more effective	closely resemble that of endoxifen

Reference: patent publication US20250241876A1, “ANTI-TUMOR COMPOUNDS AND METHODS OF USE THEREOF AND SYNTHESIS THEREOF” (Atossa Therapeutics, Inc., priority 2023, published 2025)
